Test results taken from the NIST ThermoML archive (doi:10.1016/j.tca.2019.178308).
Numbers after ± are expanded uncertainties. Blank lines part the entries; values can stand above or below the molecule they belong to.

Experiments:
[1] = wn = mass fraction of the nth substance listed; settings: 304.15 K, 100 kPa, Liquid, transient hot wire
[2] = 304.15 K; 100 kPa; Liquid; transient hot wire

- thermal conductivity ([1]; w1 = 0.001): 0.589 ± 0.024 W/m/K
- thermal conductivity ([1]; w1 = 0.003): 0.538 ± 0.022 W/m/K
- thermal conductivity ([1]; w1 = 0.005): 0.537 ± 0.022 W/m/K
- thermal conductivity ([1]; w1 = 0.007): 0.499 ± 0.02 W/m/K
Compound: CCCCCCCCCCCCOS(=O)(=O)[O-].[Na+] [sodium dodecyl sulfate] + O

- thermal conductivity [2]: 0.613 ± 0.025 W/m/K
Compound: O [water]

- thermal conductivity ([1]; w2 = 0): 0.613 ± 0.025 W/m/K
Compound: O [water] + CCCCCCCCCCCCOS(=O)(=O)[O-].[Na+]
